The values below come from paper PMC4422330 (Bioorganic & medicinal chemistry letters, 2008).

For data set [1], the target named is T1, pfNDH2 (Plasmodium falciparum, UniProt Q8I302). As to the kind of experiment: biochemical. The class given is biochemical. Conditions: for inhibition of pfNDH2 activity (in words): purified recombinant pfNDH2, concentrations of up to 10 µM.
The next data set concerns the target T2, pfDHOD (Plasmodium falciparum, UniProt Q08210).
T2 sequence (Q08210 24-569): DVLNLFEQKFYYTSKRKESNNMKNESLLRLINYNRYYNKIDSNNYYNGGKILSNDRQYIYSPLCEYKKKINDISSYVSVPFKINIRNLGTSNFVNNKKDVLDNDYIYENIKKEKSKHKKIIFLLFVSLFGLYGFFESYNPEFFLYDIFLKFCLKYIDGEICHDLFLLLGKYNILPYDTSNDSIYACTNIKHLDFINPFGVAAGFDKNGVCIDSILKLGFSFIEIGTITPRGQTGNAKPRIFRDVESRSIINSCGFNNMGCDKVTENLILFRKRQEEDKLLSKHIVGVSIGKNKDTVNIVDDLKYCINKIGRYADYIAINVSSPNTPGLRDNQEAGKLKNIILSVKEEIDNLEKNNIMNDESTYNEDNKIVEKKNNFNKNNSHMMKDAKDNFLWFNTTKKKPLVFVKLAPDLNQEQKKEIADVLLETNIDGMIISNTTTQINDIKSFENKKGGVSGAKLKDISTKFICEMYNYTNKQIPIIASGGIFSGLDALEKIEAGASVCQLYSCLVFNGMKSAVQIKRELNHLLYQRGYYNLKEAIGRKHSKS
As to the kind of experiment: biochemical.

The target in data set [2] is T1, pfNDH2. In words: Kinetic properties of purified pfNDH2 with electron-accepting substrates. The class given is biochemical. The conditions noted are these: in vitro, absence of membrane components.
Data set [3] relates to O=C1C=CC(=Nc2cc(Cl)c(O)c(Cl)c2)C=C1. The description is as above. The class given is biochemical, Plasmodium falciparum. Conditions: pH 8.0; 100.0 °C.
A further data set deals with P. falciparum DD2-scDHOD. Type of data set: cell-based, Plasmodium falciparum. The conditions noted are these: drug concentration of up to 10 µM.

As to `O=C1C(O)=C([C@H]2CC[C@H](c3ccc(Cl)cc3)CC2)C(=O)c2ccccc21` [Atovaquone], the IC50 at pfNDH2 [1] and on pfDHOD was more than 10 µM in each case. In the case of `COC1=C(OC)C(=O)C(C/C=C(\C)CC/C=C(\C)CC/C=C(\C)CCC=C(C)C)=C(C)C1=O` [CoQ4], the “utilization as electron acceptor substrate by pfNDH2 (in words)” value on pfNDH2 [2] was “not efficiently utilized”. Same read-out and setting: to `COC1=C(OC)C(=O)C(C)=CC1=O` [CoQ0] belongs “detectable catalysis”; to `CCCCCCCCCCC1=C(C)C(=O)C(OC)=C(OC)C1=O` [CoQD], “not efficiently utilized”. With `[Cl-].c1ccc([I+]c2ccccc2)cc1` [IDP, diphenyliodonium chloride], the IC50 on pfNDH2 [1] and on pfDHOD was more than 10 µM throughout. In addition, the “inhibition of pfNDH2 activity (in words)” value at pfNDH2 [1] was “do not inhibit”. On to `COC1=C(OC)C(=O)C(CC=C(C)C)=C(C)C1=O` [CoQ1], for which the “utilization as electron acceptor substrate by pfNDH2 (in words)” value on pfNDH2 [2] was “detectable catalysis”. With `C=C(C)[C@H]1Cc2c(ccc3c2O[C@@H]2COc4cc(OC)c(OC)cc4[C@@H]2C3=O)O1` [Rotenone], the IC50 at pfNDH2 [1] and against pfDHOD was more than 10 µM throughout.

Consider `O=c1cc(-c2ccccc2)oc2ccccc12` [Flavone], for which the half-maximal inhibitory concentration (IC50) against pfNDH2 [1] and on pfDHOD was more than 10 µM in each case.

`C[C@@H]1CC[C@H]2[C@@H](C)C(=O)O[C@@H]3O[C@@]4(C)CC[C@@H]1[C@]32OO4` [Artemisinin]: on pfNDH2 [1], the IC50 was more than 10 µM and the “inhibition of pfNDH2 activity (in words)” value is on record as “did not perturb catalysis”. This molecule registered a concentration for half-maximal inhibition (IC50) at pfDHOD of more than 10 µM. For the molecule pfNDH2 (Plasmodium falciparum 3D7), in data set [3], the Km was found to be 4.6 µM and the turnover number (kcat) turned out to be 0.0317 s⁻¹. Regarding `CCCCCCCCCCCCc1cc(=O)c2ccccc2n1O` [HDQ, 1-hydroxy-2-dodecyl-4(1H)quinolone], at pfNDH2 [1], the IC50 is more than 10 µM and the “inhibition of pfNDH2 activity (in words)” value is “do not inhibit”. Besides, in the data set on P. falciparum DD2-scDHOD, the “proliferation of the scDHOD-expressing transgenic strain (in words)” value is “unaffected”.

Broadly, the IC50 is the midpoint of a concentration-inhibition curve. Low readings indicate higher potency, high ones lower potency. What is called Km is the concentration of substrate that gives half-maximal velocity. Broadly, the kcat is the maximal rate divided by the concentration of active sites.
